From ChEMBL document CHEMBL1201862, “PubChem BioAssay data set” (2004)
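A five-concentration, 48-hour dose response in 96-well plates underlies each endpoint, interpolated linearly between surrounding concentrations. The concentration for 50% growth inhibition is given as GI50.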 Activity calls are given as the source filed them. Rule as the data show it: active = GI50 up to about 1.1 µM and inactive = higher.

Assays:
Assay in all cases: NCI-60 cell line screen, 48 h
[1] = test system: RXF 393
[2] = test system: SNB-75
[3] = test system: IGROV-1
[4] = test system: CAKI-1
[5] = test system: SF-295
[6] = test system: RPMI-8226
[7] = test system: 786-0
[8] = test system: BT-549
[9] = test system: M14
[10] = test system: SK-OV-3
[11] = test system: TK-10
[12] = test system: UACC-257
[13] = test system: MOLT-4
[14] = test system: SK-MEL-2
[15] = test system: EKVX
[16] = test system: OVCAR-3
[17] = test system: SK-MEL-5
[18] = test system: Malme-3M
[19] = test system: NCI-H460

Measured: GI50

CCOc1cc(NC(C)=O)ccc1C(=O)NN1C(=O)/C(=C/c2ccc(Cl)cc2)N=C1c1ccccc1
inactive: [1] 33 µM | [2] 40.3 µM | [3] 18.1 µM | [4] 43.1 µM | [5] 38.5 µM | [6] 25.9 µM | [7] 74.1 µM | [8] 47.4 µM | [9] 48.5 µM | [10] > 100 µM | [11] 49.1 µM | [12] 43.9 µM | [13] 17.7 µM | [14] 28.3 µM | [15] 26 µM | [16] 33 µM | [17] 24.2 µM

Cc1cc(NS(=O)(=O)c2ccc(Nc3c4ccccc4nc4c(C(=O)NC(CO)(CO)CO)cccc34)cc2)no1
inactive: [2] 8.41 µM | [3] 29 µM | [4] 42.2 µM | [5] 41 µM | [6] 19.7 µM | [18] 29.4 µM | [7] 34.4 µM | [8] 39.2 µM | [9] 52.5 µM | [10] 35.2 µM | [11] 29.2 µM | [12] 72.1 µM | [13] 8.75 µM | [19] > 10 µM | [14] 19.4 µM | [15] 73.6 µM | [16] 39.3 µM | [17] 32.4 µM

COc1cc(/C=N/N=C2NCCCN2)ccc1O
inactive: [1] > 100 µM | [2] 30.3 µM | [3] > 100 µM | [5] > 100 µM | [6] > 100 µM | [18] 95.7 µM | [7] > 100 µM | [8] > 100 µM | [9] > 100 µM | [10] > 100 µM | [11] > 100 µM | [12] > 100 µM | [13] > 100 µM | [19] 82.8 µM | [14] > 100 µM | [15] > 100 µM | [16] > 100 µM | [17] > 100 µM

Cc1sc(N/N=C2\C(=O)Nc3ccccc32)nc1-c1ccccc1
inactive: [1] 15.8 µM | [2] 19.7 µM | [3] 9.48 µM | [4] 17.4 µM | [5] 11 µM | [7] 17.4 µM | [8] 16.3 µM | [9] 16 µM | [10] 14.9 µM | [11] 23.8 µM | [12] 21.4 µM | [13] 12.6 µM | [19] 10.2 µM | [14] 18.7 µM | [15] 11.1 µM | [16] 12.6 µM | [17] 12.6 µM

CCS(=O)(=O)CCn1cnc2c1c(=O)n(C)c(=O)n2C
inactive: [1] > 100 µM | [2] > 100 µM | [3] > 100 µM | [4] > 100 µM | [5] > 100 µM | [7] > 100 µM | [8] > 100 µM | [9] > 100 µM | [11] > 100 µM | [12] > 100 µM | [13] > 100 µM | [19] > 100 µM | [14] > 100 µM | [15] > 100 µM | [16] > 100 µM | [17] > 100 µM

CC(=O)Nn1cnc(C(=N)C#N)c1N
inactive: [2] > 100 µM | [3] > 100 µM | [4] > 100 µM | [5] > 100 µM | [6] > 100 µM | [18] > 100 µM | [7] > 100 µM | [8] > 100 µM | [9] > 100 µM | [10] > 100 µM | [11] > 100 µM | [12] > 100 µM | [13] > 100 µM | [19] > 100 µM | [14] > 100 µM | [15] > 100 µM | [16] > 100 µM | [17] > 100 µM

CCCCCCNC(=O)CCC(NC(=O)c1ccc(N(C)Cc2cnc3nc(N)nc(N)c3n2)cc1)C(=O)NCCCCCC (stereo not given)
inactive: [1] 39.4 µM | [2] > 100 µM | [3] 16.2 µM | [4] > 100 µM | [5] 16.7 µM | [6] 37.8 µM | [7] > 100 µM | [8] > 100 µM | [9] 73.8 µM | [10] 17.7 µM | [11] > 100 µM | [12] 37.1 µM | [13] > 100 µM | [19] 47.2 µM | [14] > 100 µM | [15] 37.4 µM | [16] > 100 µM | [17] 7.41 µM

Cc1cc(O)no1 [HYMEXAZOL]
inactive: [1] > 100 µM | [2] > 100 µM | [3] > 100 µM | [4] > 100 µM | [5] > 100 µM | [6] > 100 µM | [7] > 100 µM | [8] > 100 µM | [9] > 100 µM | [10] > 100 µM | [11] > 100 µM | [12] > 100 µM | [19] > 100 µM | [14] > 100 µM | [15] > 100 µM | [16] > 100 µM

O=S1(=O)c2ccccc2N(c2ccccc2)c2nnnn21
inactive: [1] 19.9 µM | [3] 32.3 µM | [4] 17.6 µM | [5] 47 µM | [7] 17.1 µM | [8] 22.8 µM | [9] 20.9 µM | [10] 42.3 µM | [11] 38.5 µM | [12] 42.3 µM | [13] 19.5 µM | [19] 31.3 µM | [14] 40.4 µM | [15] 33 µM | [16] 18.5 µM | [17] 34.4 µM

CC(NC(=O)c1c(O)[nH]c(=S)[nH]c1=O)c1ccc([N+](=O)[O-])cc1 (stereo not given)
inactive: [1] > 100 µM | [2] 17.9 µM | [3] > 100 µM | [4] > 100 µM | [5] > 100 µM | [6] > 100 µM | [7] 94.6 µM | [8] > 100 µM | [9] > 100 µM | [10] > 100 µM | [11] > 100 µM | [12] > 100 µM | [13] 29.1 µM | [19] > 100 µM | [14] 32.5 µM | [15] > 100 µM | [16] 36.1 µM | [17] > 100 µM

Cc1cc2c(c(/C=N/c3ccc([N+](=O)[O-])cc3)c1)OC1(C=C2)Oc2ccccc2C(=O)N1C (stereo not given)
inactive: [1] 18.5 µM | [2] 14.6 µM | [3] 18.8 µM | [4] 13.8 µM | [5] 24.4 µM | [6] 19.3 µM | [7] 22.6 µM | [8] 19.6 µM | [9] 23.3 µM | [10] 22.2 µM | [11] 24.5 µM | [12] 21.2 µM | [13] 4.94 µM | [19] 21.8 µM | [14] 24.8 µM | [15] 13.6 µM | [16] 29.4 µM | [17] 31.8 µM
